# Paper PMC7411887, “New Paracyclophanylthiazoles with Anti-Leukemia Activity: Design, Synthesis, Molecular Docking, and Mechanistic Studies” (Molecules, 2020)
# Key:
# Test in all cases: NCI single-dose screen (SRB)
# Type in all cases: cell-based
# LOX IMVI = details: Homo sapiens; Melanoma LOX IMVI; 10^−5 M; read-out: Growth inhibition percentage
# In short: (§1)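 Compounds were applied at a single concentration of 10^−5 M and cells were incubated for 48 h. Growth was measured spectrophotometrically with the protein-binding dye SRB and expressed as percentage growth of treated versus untreated control cells; experiments were repeated three times.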
# A498 = details: Homo sapiens; Renal Cancer A498; 10^−5 M; read-out: Growth inhibition percentage
# In short: as §1
# SF-295 = details: Homo sapiens; CNS Cancer SF-295; 10^−5 M; read-out: Growth inhibition percentage
# In short: as §1
# NCI-H23 = details: Homo sapiens; Non-Small-Cell Lung Cancer NCI-H23; 10^−5 M; read-out: Growth inhibition percentage
# In short: as §1
# 786-0 = details: Homo sapiens; Renal Cancer 786-0; 10^−5 M; read-out: Growth inhibition percentage
# In short: as §1
# SNB-19 = details: Homo sapiens; CNS Cancer SNB-19; 10^−5 M; read-out: Growth inhibition percentage
# In short: as §1
# ACHN = details: Homo sapiens; Renal Cancer ACHN; 10^−5 M; read-out: Growth inhibition percentage
# In short: as §1
# U251 = details: Homo sapiens, U-251; CNS Cancer U251; 10^−5 M; read-out: Growth inhibition percentage
# In short: as §1
# SW-620 = details: Homo sapiens; Colon Cancer SW-620; 10^−5 M; read-out: Growth inhibition percentage
# In short: as §1
# SK-OV-3 = details: Homo sapiens; Ovarian Cancer SK-OV-3; 10^−5 M; read-out: Growth inhibition percentage
# In short: as §1
# SNB-75 = details: Homo sapiens; CNS Cancer SNB-75; 10^−5 M; read-out: Growth inhibition percentage
# In short: as §1
# NCI-H226 = details: Homo sapiens; Non-Small-Cell Lung Cancer NCI-H226; 10^−5 M; read-out: Growth inhibition percentage
# In short: as §1
# OVCAR-3 = details: Homo sapiens; Ovarian Cancer OVCAR-3; 10^−5 M; read-out: Growth inhibition percentage
# In short: as §1
# SN12C = details: Homo sapiens; Renal Cancer SN12C; 10^−5 M; read-out: Growth inhibition percentage
# In short: as §1
# NCI/ADR-RES = details: Homo sapiens; Ovarian Cancer NCI/ADR-RES; 10^−5 M; read-out: Growth inhibition percentage
# In short: as §1
# DU-145 = details: Homo sapiens; Prostate Cancer DU-145; 10^−5 M; read-out: Growth inhibition percentage
# In short: as §1
# SR = details: Homo sapiens; Leukemia SR; 10^−5 M; read-out: Growth inhibition percentage
# In short: as §1
# HOP-62 = details: Homo sapiens; Non-Small-Cell Lung Cancer HOP-62; 10^−5 M; read-out: Growth inhibition percentage
# In short: as §1
# OVCAR-8 = details: Homo sapiens; Ovarian Cancer OVCAR-8; 10^−5 M; read-out: Growth inhibition percentage
# In short: as §1
# MCF7 = details: Homo sapiens; Breast Cancer MCF7; 10^−5 M; read-out: Growth inhibition percentage
# In short: as §1
# K-562 = details: Homo sapiens, K562; Leukemia K-562; 10^−5 M; read-out: Growth inhibition percentage
# In short: as §1
# BT-549 = details: Homo sapiens; Breast Cancer BT-549; 10^−5 M; read-out: Growth inhibition percentage
# In short: as §1
# TK-10 = details: Homo sapiens; Renal Cancer TK-10; 10^−5 M; read-out: Growth inhibition percentage
# In short: as §1
# T-47D = details: Homo sapiens, T47D; Breast Cancer T-47D; 10^−5 M; read-out: Growth inhibition percentage
# In short: as §1
# SK-MEL-28 = details: Homo sapiens; Melanoma SK-MEL-28; 10^−5 M; read-out: Growth inhibition percentage
# In short: as §1
# CCRF-CEM = details: Homo sapiens; Leukemia CCRF-CEM; 10^−5 M; read-out: Growth inhibition percentage
# In short: as §1
# M14 = details: Homo sapiens; Melanoma M14; 10^−5 M; read-out: Growth inhibition percentage
# In short: as §1
# COLO 205 = details: Homo sapiens; Colon Cancer COLO 205; 10^−5 M; read-out: Growth inhibition percentage
# In short: as §1
# IGROV1 = details: Homo sapiens, IGROV-1; Ovarian Cancer IGROV1; 10^−5 M; read-out: Growth inhibition percentage
# In short: as §1
# NCI-H322M = details: Homo sapiens; Non-Small-Cell Lung Cancer NCI-H322M; 10^−5 M; read-out: Growth inhibition percentage
# In short: as §1
compound,measurement,setting,value
COC(=O)/C=C1/S/C(=N/NC(=O)c2cc3ccc2CCc2ccc(cc2)CC3)N(C2CC2)C1=O [Compound 3f],inhibition at 10 µM,LOX IMVI,9.41%
same,inhibition at 10 µM,A498,3.39%
same,inhibition at 10 µM,SF-295,8.8%
same,inhibition at 10 µM,NCI-H23,9.32%
same,inhibition at 10 µM,786-0,14.6%
same,inhibition at 10 µM,SNB-19,11.3%
same,inhibition at 10 µM,ACHN,17.8%
same,inhibition at 10 µM,U251,20.3%
same,inhibition at 10 µM,SW-620,12.9%
same,inhibition at 10 µM,SK-OV-3,0%
same,inhibition at 10 µM,SNB-75,24.7%
same,inhibition at 10 µM,NCI-H226,9.41%
same,inhibition at 10 µM,OVCAR-3,15.9%
same,inhibition at 10 µM,SN12C,17.1%
same,inhibition at 10 µM,NCI/ADR-RES,7.72%
same,inhibition at 10 µM,DU-145,6.2%
same,inhibition at 10 µM,SR,39.1%
same,inhibition at 10 µM,HOP-62,0%
same,inhibition at 10 µM,OVCAR-8,13.3%
same,inhibition at 10 µM,MCF7,36.4%
same,inhibition at 10 µM,K-562,30.5%
same,inhibition at 10 µM,BT-549,26.8%
same,inhibition at 10 µM,TK-10,0%
same,inhibition at 10 µM,T-47D,23%
same,inhibition at 10 µM,SK-MEL-28,10.3%
same,inhibition at 10 µM,CCRF-CEM,41.4%
same,inhibition at 10 µM,M14,19.2%
same,inhibition at 10 µM,COLO 205,4.48%
same,inhibition at 10 µM,IGROV1,7.2%
same,inhibition at 10 µM,NCI-H322M,4.43%
